Test results from ChEMBL document CHEMBL1201862, “PubChem BioAssay data set” (2004).
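Cells were grown in 96-well plates and exposed to each compound for 48 hours at five concentrations; endpoints were interpolated linearly between bracketing concentrations, or set to the highest concentration if not reached. Here, GI50 denotes the concentration required for 50% inhibition of growth.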 Active and inactive are the calls of the source. Cut-off read from the data, not from the text of the source: active = GI50 up to about 1.1 µM and inactive = higher.

What was measured:
Assay in all cases: NCI-60 cell line screen, 48 h
COLO 205 = test system: COLO 205
DLD-1 = test system: DLD-1
DMS-273 = test system: DMS-273
EKVX = test system: EKVX
HCC 2998 = test system: HCC 2998
HOP-18 = test system: HOP-18
KM-20L2 = test system: KM-20L2
LXFL 529 = test system: LXFL 529
M19-MEL = test system: M19-MEL
OVCAR-3 = test system: OVCAR-3
OVCAR-5 = test system: OVCAR-5
OVCAR-8 = test system: OVCAR-8
SF-268 = test system: SF-268
SN12C = test system: SN12C
TK-10 = test system: TK-10
BT-549 = test system: BT-549
MCF7 = test system: MCF7
MDA-N = test system: MDA-N
NCI/ADR-RES = test system: NCI/ADR-RES
T47D = test system: T47D

| Structure (SMILES) | GI50 (COLO 205) | GI50 (DLD-1) | GI50 (DMS-273) | GI50 (EKVX) | GI50 (HCC 2998) | GI50 (HOP-18) | GI50 (KM-20L2) | GI50 (LXFL 529) | GI50 (M19-MEL) | GI50 (OVCAR-3) | GI50 (OVCAR-5) | GI50 (OVCAR-8) | GI50 (SF-268) | GI50 (SN12C) | GI50 (TK-10) | GI50 (BT-549) | GI50 (MCF7) | GI50 (MDA-N) | GI50 (NCI/ADR-RES) | GI50 (T47D) |
| --- | --- | --- | --- | --- | --- | --- | --- | --- | --- | --- | --- | --- | --- | --- | --- | --- | --- | --- | --- | --- |
| C1=CC=C2NCCSCC/N=C3/C=CC=CC=C3NCCSCC/N=C\2C=C1 | > 100 µM (inactive) | > 100 µM (inactive) | > 100 µM (inactive) | > 100 µM (inactive) | > 100 µM (inactive) | > 100 µM (inactive) | > 100 µM (inactive) | > 100 µM (inactive) | > 100 µM (inactive) | > 100 µM (inactive) | > 100 µM (inactive) | > 100 µM (inactive) | > 100 µM (inactive) | > 100 µM (inactive) | > 100 µM (inactive) | – | – | – | – | – |
| CCC/C(=N\NC(=O)c1cc2ccccc2cc1O)C(CC)C(=O)CCC(=O)N(Cc1ccccc1)Cc1ccccc1 (stereo not given) | 28.5 µM (inactive) | 58.1 µM (inactive) | 18.2 µM (inactive) | 32 µM (inactive) | 67.5 µM (inactive) | 11 µM (inactive) | 43 µM (inactive) | 29.6 µM (inactive) | 18.7 µM (inactive) | 20.5 µM (inactive) | 36.2 µM (inactive) | 49.9 µM (inactive) | 19.7 µM (inactive) | 63.2 µM (inactive) | > 100 µM (inactive) | – | – | – | – | – |
| CN(C)Cc1cc(/C(=C(\C#N)c2ccccc2)c2ccc(O)cc2)ccc1O | 14.5 µM (inactive) | 20.8 µM (inactive) | 17.4 µM (inactive) | 23.9 µM (inactive) | 15.5 µM (inactive) | 19.9 µM (inactive) | 20.4 µM (inactive) | 18.2 µM (inactive) | 16.9 µM (inactive) | 18.7 µM (inactive) | 26.2 µM (inactive) | 19.1 µM (inactive) | 20 µM (inactive) | 18.3 µM (inactive) | 23 µM (inactive) | – | – | – | – | – |
| Oc1cc(-n2cccn2)c(O)cc1-n1cccn1 | 18.1 µM (inactive) | 32.6 µM (inactive) | 41.3 µM (inactive) | > 69.2 µM (inactive) | > 100 µM (inactive) | 67.9 µM (inactive) | > 85.7 µM (inactive) | 19.4 µM (inactive) | 23.7 µM (inactive) | 19.1 µM (inactive) | 53.1 µM (inactive) | 26.2 µM (inactive) | 55.7 µM (inactive) | 19.3 µM (inactive) | 26.8 µM (inactive) | 18.7 µM (inactive) | 19.1 µM (inactive) | 17.6 µM (inactive) | 29.4 µM (inactive) | 22.3 µM (inactive) |
| CC1(C)OC(=O)C(c2ccsc2)C(=O)O1 | > 100 µM (inactive) | > 100 µM (inactive) | > 100 µM (inactive) | > 100 µM (inactive) | > 100 µM (inactive) | > 100 µM (inactive) | > 100 µM (inactive) | > 100 µM (inactive) | > 100 µM (inactive) | > 100 µM (inactive) | > 100 µM (inactive) | > 100 µM (inactive) | > 100 µM (inactive) | > 100 µM (inactive) | > 100 µM (inactive) | – | – | – | – | – |
| COc1ccc(/C(Cl)=C(\C=O)c2ccc(Cl)cc2)cc1OC | 3.77 µM (inactive) | 5.12 µM (inactive) | 3.72 µM (inactive) | 4.47 µM (inactive) | 14.9 µM (inactive) | 19.1 µM (inactive) | 7.62 µM (inactive) | 7.28 µM (inactive) | 9.12 µM (inactive) | 5.74 µM (inactive) | 85.1 µM (inactive) | 4.03 µM (inactive) | 12.3 µM (inactive) | 3.72 µM (inactive) | 5.26 µM (inactive) | – | – | – | – | – |
| Cc1c(N)nc(C(CC(N)=O)NCC(N)C(N)=O)nc1C(=O)NC(C(=O)NC(C)C(O)C(C)C(=O)NC(C(=O)NCCc1nc(-c2nc(C(=O)NCCCNCCCCN)cs2)cs1)C(C)O)C(OC1OC(CO)C(O)C(O)C1OC1OC(CO)C(O)C(OC(N)=O)C1O)c1c[nH]cn1 (stereo not given) | > 10 µM (inactive) | > 10 µM (inactive) | 0.957 µM (active) | > 10 µM (inactive) | > 10 µM (inactive) | > 10 µM (inactive) | > 10 µM (inactive) | > 10 µM (inactive) | > 10 µM (inactive) | > 6.28 µM (inactive) | > 10 µM (inactive) | > 10 µM (inactive) | 1.18 µM (inactive) | 3.56 µM (inactive) | > 10 µM (inactive) | – | – | – | – | – |
| CN(C)CCCNc1ccc2nnn3c4ccc([N+](=O)[O-])cc4c(=O)c1c23 | 0.834 µM (active) | 0.931 µM (active) | 0.685 µM (active) | 2.56 µM (inactive) | 2.23 µM (inactive) | 0.729 µM (active) | 0.745 µM (active) | 1.22 µM (inactive) | 3.65 µM (inactive) | 2.55 µM (inactive) | 1.99 µM (inactive) | 0.597 µM (active) | 1.14 µM (inactive) | 0.695 µM (active) | 1.13 µM (inactive) | 5.26 µM (inactive) | 1.74 µM (inactive) | 2.09 µM (inactive) | 0.685 µM (active) | 11.4 µM (inactive) |
